Measured values from patent EP0023575A1, “Benzene sulfonyl semicarbazides, their preparation and use, pharmaceutical formulations containing them and their preparation” (HOECHST AKTIENGESELLSCHAFT, priority 1979, dated 1981).

Tested on: normal ernährte Kaninchen
Assay: Blood sugar lowering in normally fed rabbits after oral administration (autoanalyzer)
Format: in vivo
Procedure: Die blutzuckersenkende Wirkung der beschriebenen Benzolsulfonylsemicarbazide kann dadurch festgestellt werden, daß man sie als freie Verbindung oder in Form der Natriumsalze an normal ernährte Kaninchen verfüttert und den Blutzuckerwert nach der bekannten Methode von Hagedorn-Jensen oder mit einem Autoanalyzer über eine längere Zeitdauer ermittelt.
Die routinemäßige Bestimmung der blutzuckersenkenden Wirkung kann mit Dosierungen von z.B. 10,2 oder 0,4 mg Wirksubstanz pro kg Versuchstier nach bekannten Methoden erfolgen.
4-(4-<2-(1-Oxo-isoindolin-2-carboxamido)-äthyl> -benzolsulfonyl)-1,1-hexamethylen-semicarbazid wurde in einer Dosierung von 0,4 mg/kg Kaninchen verabreicht und die Blutzuckerwerte wurden mit einem Autoanalyzer über eine längere Zeitdauer ermittelt. Die hierbei gemessene Blutzuckersenkung ist in der nachfolgenden Tabelle in % nach.... Stunden angegeben. In der Tabelle ist ferner die Blutzuckersenkung in % angegeben, die nach p.o. Verabreichung von 0,08 mg/kg Kaninchen beobachtet wurde.

O=C(NN1CCCCCC1)NS(=O)(=O)c1ccc(CCNC(=O)N2Cc3ccccc3C2=O)cc1 [4-(4-<2-(1-Oxo-isoindolin-2-carboxamido)-äthyl> -benzolsulfonyl)-1,1-hexamethylen-semicarbazid]
Blutzuckersenkung an Kaninchen in % (0,4 mg/kg p.o., after 1 hour): 26% | Blutzuckersenkung an Kaninchen in % (0,4 mg/kg p.o., after 3 hours): 31% | Blutzuckersenkung an Kaninchen in % (0,4 mg/kg p.o., after 5 hours): 43% | Blutzuckersenkung an Kaninchen in % (0,4 mg/kg p.o., after 24 hours): 37% | Blutzuckersenkung an Kaninchen in % (0,4 mg/kg p.o., after 48 hours): 0% | Blutzuckersenkung an Kaninchen in % (0,08 mg/kg p.o., after 1 hour): 11% | Blutzuckersenkung an Kaninchen in % (0,08 mg/kg p.o., after 3 hours): 22% | Blutzuckersenkung an Kaninchen in % (0,08 mg/kg p.o., after 5 hours): 33%
